Results: PubChem BioAssay AID2060626 (Molecular Pharmacology Branch, DTP, NCI, 2025)

Tested on: 168753-222-R-J1-PDC complex spheroid viability
Assay: Anticancer human tumor 168753-222-R-J1-PDC patient-derived bladder carcinoma cell line growth inhibition [CLK]
Conditions: for IC50: curve of first compound; for viability, T/C: stronger effect = lower value
How it was run: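 Patient-derived tumor cells grown as complex spheroids with HUVEC endothelial cells and mesenchymal stem cells, treated with drug combinations. Concentrations descend in half-log steps from near clinical Cmax, or from 10 microM if Cmax unknown.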

[1] = second compound 0.0316 µM, first compound 0.00316 µM
[2] = second compound 0.0316 µM, first compound 0.01 µM
[3] = second compound 0.0316 µM, first compound 0.0316 µM
[4] = second compound 0.0316 µM, first compound 0.1 µM
[5] = second compound 0.0316 µM, first compound 0.316 µM
[6] = second compound 0.0316 µM, first compound 1 µM
[7] = second compound 0.1 µM, first compound 0.00316 µM
[8] = second compound 0.1 µM, first compound 0.01 µM
[9] = second compound 0.1 µM, first compound 0.0316 µM
[10] = second compound 0.1 µM, first compound 0.1 µM
[11] = second compound 0.1 µM, first compound 0.316 µM
[12] = second compound 0.1 µM, first compound 1 µM
[13] = second compound 0.316 µM, first compound 0.00316 µM
[14] = second compound 0.316 µM, first compound 0.01 µM
[15] = second compound 0.316 µM, first compound 0.0316 µM
[16] = second compound 0.316 µM, first compound 0.1 µM
[17] = second compound 0.316 µM, first compound 0.316 µM
[18] = second compound 0.316 µM, first compound 1 µM
[19] = second compound 1 µM, first compound 0.00316 µM
[20] = second compound 1 µM, first compound 0.01 µM
[21] = second compound 1 µM, first compound 0.0316 µM
[22] = second compound 1 µM, first compound 0.1 µM
[23] = second compound 1 µM, first compound 0.316 µM
[24] = second compound 1 µM, first compound 1 µM
[25] = second compound 3.16 µM, first compound 0.00316 µM
[26] = second compound 3.16 µM, first compound 0.01 µM
[27] = second compound 3.16 µM, first compound 0.0316 µM
[28] = second compound 3.16 µM, first compound 0.1 µM
[29] = second compound 3.16 µM, first compound 0.316 µM
[30] = second compound 3.16 µM, first compound 1 µM
[31] = second compound 10 µM, first compound 0.00316 µM
[32] = second compound 10 µM, first compound 0.01 µM
[33] = second compound 10 µM, first compound 0.0316 µM
[34] = second compound 10 µM, first compound 0.1 µM
[35] = second compound 10 µM, first compound 0.316 µM
[36] = second compound 10 µM, first compound 1 µM
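Also: viability measured after seven days of drug exposure.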
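For viability, T/C in this document: luminescence signal used as surrogate for viable cell amount; 100% = DMSO vehicle control wells.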

COc1c(OCCCN2CCOCC2)ccc2c3n(c(=NC(=O)c4cnc(N)nc4)nc12)CCN3 + CN1CCN(c2cc(C(=O)Nc3cc4cc(-c5cnn(C)c5)ccc4cn3)ccn2)CC1
IC50 (second compound 0.0316 µM): < 3.16 nM
IC50 (second compound 0.1 µM): < 3.16 nM
IC50 (second compound 0.316 µM): < 3.16 nM
IC50 (second compound 1 µM): < 3.16 nM
IC50 (second compound 3.16 µM): < 3.16 nM
IC50 (second compound 10 µM): < 3.16 nM
viability, T/C [1]: 49%
viability, T/C [2]: 28.7%
viability, T/C [3]: 11.2%
viability, T/C [4]: 7.62%
viability, T/C [5]: 4.48%
viability, T/C [6]: 3.95%
viability, T/C [7]: 31.4%
viability, T/C [8]: 21.4%
viability, T/C [9]: 7.93%
viability, T/C [10]: 4.89%
viability, T/C [11]: 1.94%
viability, T/C [12]: 0.48%
viability, T/C [13]: 13.2%
viability, T/C [14]: 10.1%
viability, T/C [15]: 2.34%
viability, T/C [16]: 0.36%
viability, T/C [17]: 0.18%
viability, T/C [18]: 1.84%
viability, T/C [19]: 0.61%
viability, T/C [20]: 0.25%
viability, T/C [21]: 0.08%
viability, T/C [22]: 0.05%
viability, T/C [23]: 0.06%
viability, T/C [24]: 0.09%
viability, T/C [25]: 1.35%
viability, T/C [26]: 0.2%
viability, T/C [27]: 0.08%
viability, T/C [28]: 0.05%
viability, T/C [29]: 0.09%
viability, T/C [30]: 0.12%
viability, T/C [31]: 0.06%
viability, T/C [32]: 0.11%
viability, T/C [33]: 0.17%
viability, T/C [34]: 0.73%
viability, T/C [35]: 0.21%
viability, T/C [36]: 0.22%

CCN1CCN(Cc2ccc(Nc3ncc(F)c(-c4cc(F)c5nc(C)n(C(C)C)c5c4)n3)nc2)CC1 + CN1CCN(c2cc(C(=O)Nc3cc4cc(-c5cnn(C)c5)ccc4cn3)ccn2)CC1
IC50 (second compound 0.0316 µM): 8.23 nM
IC50 (second compound 0.1 µM): 7.04 nM
IC50 (second compound 0.316 µM): < 3.16 nM
IC50 (second compound 1 µM): < 3.16 nM
IC50 (second compound 3.16 µM): < 3.16 nM
IC50 (second compound 10 µM): < 3.16 nM
viability, T/C [1]: 76.3%
viability, T/C [2]: 44.8%
viability, T/C [3]: 29.6%
viability, T/C [4]: 36.7%
viability, T/C [5]: 22.4%
viability, T/C [6]: 26.2%
viability, T/C [7]: 76.5%
viability, T/C [8]: 38.7%
viability, T/C [9]: 20.5%
viability, T/C [10]: 19.9%
viability, T/C [11]: 17.4%
viability, T/C [12]: 12.6%
viability, T/C [13]: 11.4%
viability, T/C [14]: 9.45%
viability, T/C [15]: 8.81%
viability, T/C [16]: 8.47%
viability, T/C [17]: 10.7%
viability, T/C [18]: 12.1%
viability, T/C [19]: 0.18%
viability, T/C [20]: 0.21%
viability, T/C [21]: 1.13%
viability, T/C [22]: 0.13%
viability, T/C [23]: 1.24%
viability, T/C [24]: 0.34%
viability, T/C [25]: 0.09%
viability, T/C [26]: 0.13%
viability, T/C [27]: 0.44%
viability, T/C [28]: 0.08%
viability, T/C [29]: 1.18%
viability, T/C [30]: 0.99%
viability, T/C [31]: 0.11%
viability, T/C [32]: 0.29%
viability, T/C [33]: 0.24%
viability, T/C [34]: 0.13%
viability, T/C [35]: 1.1%
viability, T/C [36]: 1.36%
